Broadly, the Vmax is the rate approached at saturating substrate.

Consider 16 compounds from ChEMBL document CHEMBL1130000, “Studies of pyrrolo[1,2-alpha]benzimidazolequinone DT-diaphorase substrate activity, topoisomerase II inhibition activity, and DNA reductive alkylation” (J Med Chem, 1997).

What all share (type): functional
For one assay, the species on record is Rattus norvegicus. Briefly: Maximum velocity was determined for rat liver DT diaphorase substrate activity.
Assay [1] has as its system Nucleic Acid. Briefly: Compound tested for its selectivity for incorporation into poly(dA) DNA base pairs.
Assay [2] has as its system Nucleic Acid. The experiment in a line: Compound tested for its selectivity for incorporation into poly(dA-dT) DNA base pairs.
Assay [3] deals with Nucleic Acid. Briefly: Compound tested for its selectivity for incorporation into poly(dG) DNA base pairs.

Consider `COCC(=O)O[C@H]1CCn2c1nc1c2C(=O)C(C)=C(NC(C)=O)C1=O`, for which the Vmax in the assay listed under Rattus norvegicus was 28.2 nM/s.
Still for that read-out and setting: the figure for `CC(=O)NC1=C(C)C(=O)c2c(nc3n2CC[C@@H]3OC(C)=O)C1=O` is 20.4 nM/s; for `COCC(=O)OC1CCn2c1nc1c2C(=O)C(C)=C(NC(C)=O)C1=O` (racemic) it is 9.8 nM/s; for `CC(=O)OC1CCn2c1nc1c2C(=O)C(C)=C(N2CC2)C1=O` (racemic) it is 66.5 nM/s.
Regarding `CC(=O)NC1CCn2c1nc1c2C(=O)C(C)=C(N2CC2)C1=O` (racemic), the Selectivity was found to be 41.5% in the assay with Nucleic Acid [1], 28% in the assay with Nucleic Acid [2] and 8.2% with Nucleic Acid [3]. The Vmax in the assay filed under Rattus norvegicus was 8.3 nM/s.
For the compound `CC(=O)O[C@H]1CCn2c1nc1c2C(=O)C(C)=C(N2CC2)C1=O` (stereo in doubt; (+)), the Selectivity in the assay with Nucleic Acid [1] worked out at 5.9%. Also, in the assay listed under Rattus norvegicus, the Vmax was found to be 83.4 nM/s.
On to `CC(=O)NC1=C(C)C(=O)c2c(nc3n2CCC3OC(C)=O)C1=O` (racemic), for which, in the assay listed under Rattus norvegicus, the maximal velocity (Vmax) came to 38.6 nM/s.
Still for that read-out and setting: the figure for `CC(=O)NC1=C(C)C(=O)c2c(nc3n2CCC3OC(=O)c2ccccc2)C1=O` (racemic) is 27.9 nM/s; for `CCCC(=O)OC1CCn2c1nc1c2C(=O)C(C)=C(NC(C)=O)C1=O` (racemic) it is 42.3 nM/s; for `CCCCC1=C(NC(C)=O)C(=O)c2nc3n(c2C1=O)CCC3OC(C)=O` (centres undefined) it is 15.4 nM/s.
For the compound `CC(=O)N[C@H]1CCn2c1nc1c2C(=O)C(C)=C(N2CC2)C1=O`, the results for the Selectivity with Nucleic Acid [1], with Nucleic Acid [2] and in the assay on Nucleic Acid [3] were 32.7%, 38% and 12.1%, respectively. Besides, the Vmax in the assay filed under Rattus norvegicus is 2.2 nM/s.
On to `CC(=O)NC1=C(C)C(=O)c2c(nc3n2CC[C@H]3OC(C)=O)C1=O`, for which the maximal velocity (Vmax) in the assay filed under Rattus norvegicus was found to be 14.6 nM/s.
On the same count and under the same terms, the figure for `CCCCC1=C(N2CC2)C(=O)c2nc3n(c2C1=O)CCC3OC(C)=O` (racemic) is 8.5 nM/s.
On to `CC(=O)O[C@H]1CCn2c1nc1c2C(=O)C(C)=C(N2CC2)C1=O` (stereo in doubt; (-)), for which the Selectivity in the assay on Nucleic Acid [1] is 8.5%. For the same compound, in the assay filed under Rattus norvegicus, the Vmax is 62.6 nM/s.
With `CCCCC1=C(NC(C)=O)C(=O)c2nc3n(c2C1=O)CCC3`, in the assay filed under Rattus norvegicus, the maximum rate (Vmax) came out at 18.1 nM/s.
As for `COCC(=O)O[C@@H]1CCn2c1nc1c2C(=O)C(C)=C(NC(C)=O)C1=O`, in the assay listed under Rattus norvegicus, the Vmax amounted to 16.7 nM/s.
